According to the supplement of paper PMC10307832:

How the values were obtained:
Assay in all cases: relative viability (nuclei count vs DMSO), 5 days (fraction); higher = more cells survive
[1] = compound: CC[C@H](Nc1ncnc2[nH]cnc12)c1nc2cccc(F)c2c(=O)n1-c1ccccc1 [Idelalisib] + C[C@@H](Oc1cc(-c2cnn(C3CCNCC3)c2)cnc1N)c1c(Cl)ccc(F)c1Cl [Crizotinib] (partner 1 µM)
Outline: (§1)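 Lung cancer cell lines were seeded in 1536-well plates and dosed by pin tool the next day, with either a single drug or a fixed anchor-drug dose combined with five library-drug doses (not always all listed) spaced in √10 steps. Five days later, one step fixed the cells and stained their nuclei (final 0.05% Triton X-100, 1% formaldehyde, 1 ug/ml Hoechst), and nuclei were counted on 4× images. Relative viability is the nuclei count in treated wells divided by the count in vehicle wells, and each value is the median of duplicate plates.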

[2] = compound: CC[C@H](Nc1ncnc2[nH]cnc12)c1nc2cccc(F)c2c(=O)n1-c1ccccc1 [Idelalisib] + O=C(CCCCCCC(=O)Nc1ccccc1)NO [Vorinostat] (partner 1 µM)
Outline: as §1

[3] = compound: Nc1nc2[nH]cc(CCc3ccc(C(=O)N[C@@H](CCC(=O)O)C(=O)O)cc3)c2c(=O)[nH]1 [Pemetrexed] + CC(=O)c1c(C)c2cnc(Nc3ccc(N4CCNCC4)cn3)nc2n(C2CCCC2)c1=O [Palbociclib] (partner 0.5 µM)
Outline: as §1

[4] = compound: Nc1nc2[nH]cc(CCc3ccc(C(=O)N[C@@H](CCC(=O)O)C(=O)O)cc3)c2c(=O)[nH]1 [Pemetrexed] + Nc1ncn([C@H]2C[C@H](O)[C@@H](CO)O2)c(=O)n1 [Decitabine] (partner 2 µM)
Outline: as §1

Cell Line | relative viability ([1]; first compound 0.04 µM) | relative viability ([1]; first compound 0.1265 µM) | relative viability ([1]; first compound 0.4 µM) | relative viability ([1]; first compound 1.265 µM) | relative viability ([1]; first compound 4 µM) | relative viability ([2]; first compound 0.04 µM) | relative viability ([2]; first compound 0.1265 µM) | relative viability ([2]; first compound 0.4 µM) | relative viability ([2]; first compound 1.265 µM) | relative viability ([2]; first compound 4 µM) | relative viability ([3]; first compound 0.002 µM) | relative viability ([3]; first compound 0.006325 µM) | relative viability ([3]; first compound 0.02 µM) | relative viability ([3]; first compound 0.06325 µM) | relative viability ([3]; first compound 0.2 µM) | relative viability ([4]; first compound 0.002 µM) | relative viability ([4]; first compound 0.006325 µM) | relative viability ([4]; first compound 0.02 µM) | relative viability ([4]; first compound 0.06325 µM) | relative viability ([4]; first compound 0.2 µM)
LXF-289 | 0.839 | 0.818 | 0.778 | 0.909 | 0.825 | 0.878 | 0.759 | 0.781 | 0.783 | 0.764 | 0.593 | 0.623 | 0.589 | 0.594 | 0.557 | 0.363 | 0.393 | 0.38 | 0.403 | 0.404
NCI-H23 | 0.723 | 0.56 | 0.277 | 0.533 | 0.387 | 0.674 | 0.657 | 0.395 | 0.317 | 0.62 | 0.451 | 0.439 | 0.448 | 0.503 | 0.473 | 0.287 | 0.307 | 0.322 | 0.325 | 0.318
NCI-H322M | 1 | 0.842 | 0.792 | 0.687 | 0.809 | 1.03 | 0.993 | 0.799 | 0.899 | 0.911 | 0.465 | 0.458 | 0.494 | 0.509 | 0.462 | 0.722 | 0.642 | 0.655 | 0.794 | 0.612
NCI-H358 | 0.646 | 0.579 | 0.496 | 0.549 | 0.516 | 0.643 | 0.63 | 0.588 | 0.567 | 0.593 | 0.149 | 0.111 | 0.14 | 0.134 | 0.137 | 0.177 | 0.208 | 0.214 | 0.155 | 0.127
NCI-H441 | 1.15 | 0.702 | – | 0.68 | 0.654 | 0.851 | 0.908 | – | 0.737 | 0.758 | 0.212 | 0.229 | 0.211 | 0.18 | 0.204 | 0.2 | 0.308 | 0.244 | 0.232 | 0.215
NCI-H460 | 1.39 | 0.784 | 0.842 | 0.928 | 0.83 | 0.526 | 0.783 | 0.692 | 0.525 | 0.686 | – | 0.142 | 0.206 | 0.0722 | 0.0459 | – | 0.468 | 0.507 | 0.323 | 0.0945
NCI-H520 | 0.782 | 0.727 | 0.717 | 0.737 | 0.623 | 0.768 | 0.708 | 0.669 | 0.722 | 0.488 | 0.225 | 0.238 | 0.271 | 0.243 | 0.248 | 0.504 | 0.453 | 0.538 | 0.479 | 0.494
NCI-H647 | 1.43 | 1.03 | 0.815 | 0.859 | 0.7 | 0.686 | 0.435 | 0.546 | 0.247 | 0.141 | 0.353 | 0.352 | 0.393 | 0.288 | 0.158 | 0.263 | 0.366 | 0.515 | 0.39 | 0.233
